Like-named read-outs stand apart in the source and are kept apart here. Residues, ends and D or L forms follow the SMILES beside them.
Assays:
[1] = cells
Procedure: (§1) Cell death was measured using resazurin, with 0.1% (v/v) Triton X‐100 as a control for 100% cell death. Data points are expressed as mean ± SD for at least two biological replicates. Dose response curves were fitted using [inhibitor] versus response with variable slope, Graphpad Prism v10. […] RBC lysis was determined by measuring released hemoglobin, with 0.1% (v/v) Triton X‐100 as a control for 100% cell lysis. Melittin was included as a membranolytic control. Data points are expressed as mean ± SD for two technical replicates. Dose response curves were fitted using [inhibitor] versus response with variable slope, Graphpad Prism v10. […] CC50 values are expressed as mean (SEM).
(§2) Cell death was measured using resazurin, with 0.1% (v/v) Triton X-100 as a control for 100% cell death. Data points are expressed as mean ± SD for at least two biological replicates. CC50 values are expressed as mean (SEM). Note: CPT-dipeptide-PDIP was not included in this study. c[A]PDIP is a desulfurized variant of cPDIP 2 (see Table S1) to prevent the presence of free thiol during assays. […]
(§3) HaCaT cells were grown in DMEM medium and HT144 cells were grown in RPMI medium supplemented with 2 mM L-glutamine and 10 mM sodium pyruvate. Media were supplemented with 10% (v/v) fetal bovine serum, 100 units/mL of penicillin and […] of streptomycin. Flasks of cultured cells were maintained in a humidified incubator (37 °C, 5% CO2) and passaged every 2–3 days to maintain cultures between 20–90% confluence. Cell line identity was verified by comparing […]
(§4) STR profiles of the cell lines against database entries from the DSMZ-German collection of microorganisms and cell cultures, GmBH https://celldive.dsmz.de/str/browse.
(§5) Toxicity to the HT144 and HaCaT cell lines was tested following peptide treatment by measuring the metabolism of resazurin into fluorescent resorufin. The assays were performed with 5000 cells/well (96-well plate) in serum free media. Cells were incubated with serially diluted peptides, PDCs or […]

[2] = Cytotoxicity (resazurin) against cultured HaCaT noncancerous cells
Procedure: as §1, with “(SEM). […]” for “(SEM).”
as §3, §4
(§6) Toxicity to the HT144 and HaCaT cell lines was tested following peptide treatment by measuring the metabolism of resazurin into fluorescent resorufin. The assays were performed with 5000 cells/well (96-well plate) in serum free media. Cells were incubated with serially diluted peptides, PDCs or drugs for 72 h or 24 h (37 °C, 5% CO2). PBS and 0.1% (v/v) Triton X-100 were included as controls for 0% and 100% toxicity. Resazurin was added at 0.02% (w/v) final concentration 2 h prior to the assay end point. Fluorescence (λex = 560 nm, λem = 585 nm) was measured using a Tecan infinite M1000Pro multiplate reader. Percentage cytotoxicity was calculated relative to 0% and 100% controls.
(§7) Dose-response curves were fitted and CC50 values were determined using [inhibitor] vs response with four parameters with the top constrained to 100% (GraphPad Prism version 10.0.2). Data was collected as three biological replicates, with experiments conducted on different days.
(§8) Red blood cell (RBC) lysis
(§9) Human RBCs and serum were obtained from healthy volunteers via the Red Cross Lifeblood, Brisbane, Australia. RBCs were washed three times with PBS and stored in culture medium (RPMI

[3] = test system: HaCaT (noncancerous) cells; assay: as above; settings: read-out: CC50 HaCaT; 72 h incubation, resazurin; mean (SEM)
Procedure: as §1, with “(SEM). […]” for “(SEM).”
as §3, §4, §6, §7, §8, §9

[4] = Parallel artificial membrane permeability assay (PAMPA); type: in vitro ADME; settings: for Papp at 4 h, 4 μM: PAMPA
Procedure: FIGURE 4 (A) Membrane permeability and cellular uptake of PDCs, scaffold peptides, and CPT. Compounds were added to PAMPA wells (4 μM) and incubated for 4 h. Supernatant from apical and basolateral sides of the membrane were collected and analyzed using LC–MS. The amount in the combined soluble fractions was compared to the starting amount to determine % recovery, and the apparent permeability (Papp) was calculated as before (Sevin et al. [2013]). Data is expressed as mean ± SD from a single experiment with three technical replicates. (B) Internalization/cell membrane association of PDCs 12–14 and PDIP with HT144 cells. Cells were treated with PDIP or PDCs (4 μM) for 1 h, washed to remove extracellular compound, then extracted with 75% (v/v) MeCN in mQH2O (containing 1.75% (v/v) TFA), to recover soluble peptide or PDC from precipitated cell proteins. The relative amount of internalized peptide or PDC was determined by integrating area under the curve (AUC) for the [M + 6H]^6+ m/z peak (for the intact mass) using time of flight–mass spectrometry (see Figure S2). […] Data is expressed as mean ± SD from a single experiment with three technical replicates for each treatment and control and was analyzed with ANOVA (Tukey multiple comparisons; **p < 0.01, *p < 0.05). (C) Detection of intracellular CPT following 6 h treatment of HT144 cells with CPT and PDCs 12 and 14. […] Data is expressed as mean ± SD from a single experiment with three technical replicates for each treatment and was analyzed with ANOVA (Fisher multiple paired comparisons; **p < 0.01, *p < 0.05). TEXT PRINTED IN THE PICTURE: (A) PDIP: % recovered (soluble fractions): 94 | (A) 12: % recovered (soluble fractions): 58 | (A) 14: % recovered (soluble fractions): 33 | (A) 15: % recovered (soluble fractions): 40 | (A) c[A] PDIP: % recovered (soluble fractions): 34 | (A) CPT: % recovered (soluble fractions): 92 […]
For the first assay, the PDCs (12–15), scaffold peptides and CPT (4 μM) were added to the apical side of PAMPA monolayers and incubated for 4 h. […] PDIP, CPT, and PDCs 12 and 14 had high permeability (Papp ≥ 2 × 10^−6 cm/s), highlighting that these PDCs maintain membrane permeability with the CPT cargo attached. […] Reliable permeability data were not obtained for PDC 13 because of poor recovery of the PDC from soluble fractions, and degradation during the 4 h PAMPA experiment. […] Instability of the carbonate linkage within CPT conjugates containing a dipeptide linker has been previously reported (Walker et al. [2002]), highlighting the potential incompatibility of this drug–linker combination for CPT PDCs. Considering the observed degradation of 13 in the cell‐free assay, it is also possible that extracellular degradation occurred during the cytotoxicity assays.
Parallel artificial membrane permeability assay (PAMPA)
PAMPA was performed according to the manufacturer instructions for the BD Gentest pre-coated PAMPA plate system (BD Biosciences), as previously described.16 Briefly, peptides and PDCs (4 μM in PBS) were added to the apical side of PAMPA wells and incubated for 4 h at 37 °C, 5% CO2 with 95% humidity. Soluble fractions were recovered from the apical and basolateral sides, and compound concentration was quantified using a Shimadzu LCMS-2020 instrument with a Phenomenex 5 µm C18 / 300 Å / 150 x 2 mm LC column. Data was collected from three technical replicates for each compound. The % recovery was determined from (combined from apical and basolateral fractions) relative to the starting concentration:
Recovery rate : R (%) = (C஺ ×V஺ +C஻ ×V஻ )× 100 where CA and CB are the apical and basolateral concentrations (µM), VA and VB are the apical and basolateral volumes (mL), and C0 is the initial concentration (µM).
The apparent permeability coefficient (Papp) was calculated using the following equations17 and where A is the membrane surface area (cm2): […]

[5] = test system: HT144 (melanoma) cells; assay: cells; settings: 72 h, concentration range 16 nM—2 μM
Procedure: as §1, §2, §3, §4, §5

Row | SMILES | CC50 [1] [µM] | CC50 [2] [µM] | CC50 [3] [µM] | Papp at 4 h, 4 μM [4] [×10⁻⁶ cm/s] | cytotoxic activity against HT144 [5] | % recovered (soluble fractions) ([4]; 4 μM, 4 h, combined apical and basolateral fractions) [%] | Papp at 4 h, 4 μM ([4]; 4 μM, 4 h, apical to basolateral, read-out: apparent permeability (Papp)) [×10⁻⁶ cm/s]
1 | CC[C@H](C)[C@@H]1NC(=O)[C@H](CCCCN)NC(=O)[C@H](CCCCN)NC(=O)[C@H](Cc2ccc(O)cc2)NC(=O)[C@H](CC(C)C)NC(=O)[C@@H]2CCCN2C(=O)[C@H](C)NC(=O)CNC(=O)CNC(=O)[C@H](CO)NC(=O)CNC(=O)CNC(=O)[C@H](CO)NC(=O)[C@H](CCC(=O)O)NC(=O)[C@H](CC(C)C)NC(=O)[C@H](CC(C)C)NC(=O)[C@H](CCCCN)NC(=O)[C@H](CCCCN)NC(=O)[C@H]([C@@H](C)CC)NC(=O)[C@H]([C@@H](C)CC)NC(=O)[C@H](CCCCN)NC(=O)[C@H](CCCCN)NC(=O)[C@H](Cc2ccc(O)cc2)NC(=O)[C@H](CC(C)C)NC(=O)[C@@H]2CCCN2C(=O)[C@H](C)NC(=O)CNC(=O)CNC(=O)[C@H](C)NC(=O)CNC(=O)CNC(=O)[C@H](CO)NC(=O)[C@H](CCC(=O)O)NC(=O)[C@H](CC(C)C)NC(=O)[C@H](CC(C)C)NC(=O)[C@H](CCCCN)NC(=O)[C@H](CCCCN)NC(=O)[C@H]([C@@H](C)CC)NC1=O [c[A]PDIP] (cyclo(AGGAPLYKKIIKKLLESGGSGGAPLYKKIIKKLLESGG)) | 9.35 | ~32 | ≥ 32 | ~0.4 | – | – | –
2 | CC[C@H](C)[C@@H]1NC(=O)[C@H](CCCCN)NC(=O)[C@H](CCCCN)NC(=O)[C@H](Cc2ccc(O)cc2)NC(=O)[C@H](CC(C)C)NC(=O)[C@@H]2CCCN2C(=O)CNC(=O)CNC(=O)[C@@H](NC(=O)CN)CSSC[C@@H](C(=O)N[C@@H](CCC(=O)O)C(=O)N[C@@H](CO)C(N)=O)NC(=O)[C@H](CC(C)C)NC(=O)[C@H](CCCCN)NC(=O)[C@H](CCCCN)NC(=O)[C@H]([C@@H](C)CC)NC(=O)[C@H]([C@@H](C)CC)NC(=O)[C@H](CCCCN)NC(=O)[C@H](CCCCN)NC(=O)[C@H](Cc2ccc(O)cc2)NC(=O)[C@H](CC(C)C)NC(=O)[C@@H]2CCCN2C(=O)[C@H](C)NC(=O)CNC(=O)CNC(=O)[C@H](Cn2cc(CCCC(=O)O[C@]3(CC)C(=O)OCc4c3cc3n(c4=O)Cc4cc5ccccc5nc4-3)nn2)NC(=O)CNC(=O)CNC(=O)[C@H](CO)NC(=O)[C@H](CCC(=O)O)NC(=O)[C@H](CC(C)C)NC(=O)[C@H](CC(C)C)NC(=O)[C@H](CCCCN)NC(=O)[C@H](CCCCN)NC(=O)[C@H]([C@@H](C)CC)NC1=O [PDC 12] | > 2 | > 2 | – | – | no activity | 58 | ≥ 2
